{"source": "patent US20260297092A1", "about": "“PYRAZOLOPYRIMIDINE DERIVATIVES AS INHIBITORS OF NLRP3” (Takeda Pharmaceutical Company Limited, priority 2023, published 2026)", "data": [{"system": "NLRP3 inflammasome (IL-1β production in THP-1 cells)", "assay": "IL-1β TR-FRET Assay (percentage of inhibition at 300 nM, 6 μM or 10 μM)", "type": "cell-based, human", "settings": "Homo sapiens, THP-1, 300 nM, LPS priming, ATP activation, read-out: IL-1β inhibitory rate at 300 nM (%)", "experimental": "(§1) The biological activity of the compound of Formula 1 with respect to NLRP3 was determined using the following in vitro method.\n(§2) IL-1β TR-FRET Assay (reported as percentage of inhibition at 300 nM, 6 μM or 10 μM)\n(§3) Monocytic THP-1 cells (ATCC: TIB-202) were maintained in accordance with the provider's instructions in RPMI media (Life Technologies, Cat #A10491-01); RPMI was supplemented with 10% heat inactivated fetal bovine serum (Corning, Cat #35-010-CV). The cells were differentiated into macrophages by the addition of 25 ng/mL IFN-γ (PeproTech, Cat #AF-300-02-100UG) for 24 hours at 37° C./5% CO2. Media was exchanged with fresh media with no FBS, and the cells were treated with 50 ng/mL LPS (priming step) (LPS-EK: Invivogen, Cat #tlrl-peklps). The cells were plated at 20,000 cells per well in 384-well flat-bottom cell culture plates (FALCON, Cat #353962) and were incubated for 24 hours at 37° C./5% CO2. Compounds were serially diluted (half log or 5-fold dilutions) with DMSO and were finally diluted with Media with no FBS. The compounds were added to the cells in 384-well plates (added in 1:3) and then the plates were incubated for 30 minutes at 37° C./5% CO2. The NLRP3 inflammasome was activated with the addition of 20 mM ATP (Sigma Cat #A3377-25G) and the cells were incubated for 2 hours at 37° C./5% CO2. At the end of the incubation period, 30 μL supernatant was transferred to another 384-well plate and mixed on a plate shaker for 1 minute. The supernatant was mixed with HTRF Antibody (Human IL1 beta kit, Cisbio, 62HIL1BPEH) in assay plates (Greiner Bio-One, Cat #784075) and the assay plates were incubated in shading box at room temperature for 16-24 hours. HTRF signal was measured by EnVision (Perkinelmer) in accordance with the manufacturer's instructions.\n(§4) The percentage of inhibition at 300 nM, 6 μM or 10 μM in the IL-1βTR-FRET assay was calculated by the following formula: Percentage of inhibition=[1−(HTRF signaltest−HTRF signalLow)/(HTRF signalHigh−HTRF signalLow)]*100, where HTRF signaltest is the HTRF signal in the well to which test compound is added, HTRF signalLow is the HTRF signal in the well to which 3 μM MCC-950 is added, and the HTRF signalHigh is the HTRF signal in the well to which DMSO is added.", "units": {"inhibition at 0.3 µM": "%"}, "values": [{"smiles": "COCCOc1nc2nn(-c3c(C)cc(C4CC4)cc3C(F)F)cc2c(=O)[nH]1", "note": "[Example 210, 2-[4-cyclopropyl-2-(difluoromethyl)-6-methylphenyl]-6-(2-methoxyethoxy)-2,5-dihydro-4H-pyrazolo[3,4-d]pyrimidin-4-one]", "inhibition at 0.3 µM": 101}, {"smiles": "Cc1ccc(-n2cc3c(=O)[nH]c(OCC(F)F)nc3n2)c(C)c1", "note": "[Example 220, 6-(2,2-difluoroethoxy)-2-(2,4-dimethylphenyl)-2,5-dihydro-4H-pyrazolo [3,4-d]pyrimidin-4-one]", "inhibition at 0.3 µM": 71}, {"smiles": "Cc1cc(Br)cc(C)c1-n1cc2c(=O)[nH]c(C3(F)CC3)nc2n1", "note": "[Example 188, 2-(4-bromo-2,6-dimethylphenyl)-6-(1-fluorocyclopropyl)-2,5-dihydro-4H-pyrazolo[3,4-d]pyrimidin-4-one]", "inhibition at 0.3 µM": 99}, {"smiles": "COc1nc2nn(-c3c(C)cc(C4CC4)cc3C(F)F)cc2c(=O)[nH]1", "note": "[Example 209, 2-[4-cyclopropyl-2-(difluoromethyl)-6-methylphenyl]-6-methoxy-2,5-dihydro-4H-pyrazolo[3,4-d]pyrimidin-4-one]", "inhibition at 0.3 µM": 103}, {"smiles": "CCOc1nc2nn(-c3c(C)cc(Br)cc3OC(F)F)cc2c(=O)[nH]1", "note": "[Example 221, 2-[4-bromo-2-(difluoromethoxy)-6-methylphenyl]-6-ethoxy-2,5-dihydro-4H-pyrazolo[3,4-d]pyrimidin-4-one]", "inhibition at 0.3 µM": 99}, {"smiles": "CCOc1nc2nn(-c3c(F)cc(C4CC4)cc3CC(F)(F)F)cc2c(=O)[nH]1", "note": "[Example 206, 2-[4-cyclopropyl-2-fluoro-6-(2,2,2-trifluoroethyl)phenyl]-6-ethoxy-2,5-dihydro-4H-pyrazolo[3,4-d]pyrimidin-4-one]", "inhibition at 0.3 µM": 97}, {"smiles": "CCOc1nc2nn(-c3c(F)cc(C4CC4)cc3C(O)C(F)F)cc2c(=O)[nH]1", "note": "(racemic) [Example 177, 2-[4-cyclopropyl-2-(2,2-difluoro-1-hydroxyethyl)-6-fluorophenyl]-6-ethoxy-2,5-dihydro-4H-pyrazolo[3,4-d]pyrimidin-4-one]", "inhibition at 0.3 µM": 108}, {"smiles": "COc1nc2nn(-c3c(OC)cc(C4CC4)cc3C(F)F)cc2c(=O)[nH]1", "note": "[Example 169, 2-[4-cyclopropyl-2-(difluoromethyl)-6-methoxyphenyl]-6-methoxy-2,5-dihydro-4H-pyrazolo[3,4-d]pyrimidin-4-one]", "inhibition at 0.3 µM": 103}, {"smiles": "Cc1cc(Br)cc(C)c1-n1cc2c(=O)[nH]c(-c3ccncn3)nc2n1", "note": "[Example 185, 2-(4-bromo-2,6-dimethylphenyl)-6-(pyrimidin-4-yl)-2,5-dihydro-4H-pyrazolo[3,4-d]pyrimidin-4-one]", "inhibition at 0.3 µM": 114}, {"smiles": "Cc1ccc(-n2cc3c(=O)[nH]c(OCCCC(F)(F)F)nc3n2)c(C)c1", "note": "[Example 196, 2-(2,4-dimethylphenyl)-6-(4,4,4-trifluorobutoxy)-2,5-dihydro-4H-pyrazolo[3,4-d]pyrimidin-4-one]", "inhibition at 0.3 µM": 55}, {"smiles": "CCCc1ccc(-n2nc3nc(OCC)[nH]c(=O)c3c2C)c(O)c1", "note": "[Example 80, 6-ethoxy-2-(2-hydroxy-4-propylphenyl)-3-methyl-2,5-dihydro-4H-pyrazolo[3,4-d]pyrimidin-4-one]", "inhibition at 0.3 µM": 99}, {"smiles": "Cc1cc(C2CC2)cc(C)c1-n1cc2c(=O)[nH]c(COCC(F)F)nc2n1", "note": "[Example 212, 2-(4-cyclopropyl-2,6-dimethylphenyl)-6-[(2,2-difluoroethoxy)methyl]-2,5-dihydro-4H-pyrazolo[3,4-d]pyrimidin-4-one]", "inhibition at 0.3 µM": 103}]}, {"system": "NLRP3 inflammasome (IL-1β production in THP-1 cells)", "assay": "IL-1β TR-FRET Assay (percentage of inhibition at 300 nM, 6 μM or 10 μM)", "type": "cell-based, human", "settings": "Homo sapiens, THP-1, 6 μM, LPS priming, ATP activation, read-out: IL-1β inhibitory rate at 6 μM (%)", "experimental": "as §1, §2, §3, §4", "units": {"inhibition at 6 µM": "%"}, "values": [{"smiles": "CO[C@H]1C[C@H](Oc2nc3nn(-c4ccc(C)cc4C)cc3c(=O)[nH]2)C1", "note": "[Example 244, 2-(2,4-dimethylphenyl)-6-{[(1r,3r)-3-methoxycyclobutyl]oxy}-2,5-dihydro-4H-pyrazolo[3,4-d]pyrimidin-4-one]", "inhibition at 6 µM": 100}, {"smiles": "Nc1ccc(-n2cc3c(=O)[nH]c(COC(F)F)nc3n2)c(C(F)F)c1", "note": "[Example 261, 2-[4-amino-2-(difluoromethyl)phenyl]-6-[(difluoromethoxy)methyl]-2,5-dihydro-4H-pyrazolo[3,4-d]pyrimidin-4-one]", "inhibition at 6 µM": 80}, {"smiles": "Cc1cc(C2CC2)cc(C)c1-n1cc2c(=O)[nH]c(C3(F)CCOCC3)nc2n1", "note": "[Example 238, 2-(4-cyclopropyl-2,6-dimethylphenyl)-6-(4-fluorooxan-4-yl)-2,5-dihydro-4H-pyrazolo[3,4-d]pyrimidin-4-one]", "inhibition at 6 µM": 97}, {"smiles": "O=c1[nH]c(COC(F)F)nc2nn(-c3ccc([N+](=O)[O-])cc3C(F)F)cc12", "note": "[Example 256, 6-[(difluoromethoxy)methyl]-2-[2-(difluoromethyl)-4-nitrophenyl]-2,5-dihydro-4H-pyrazolo [3,4-d]pyrimidin-4-one]", "inhibition at 6 µM": 89}, {"smiles": "Cc1cc(C2CC2)cc(C)c1-n1cc2c(=O)[nH]c(CCOCc3ccccc3)nc2n1", "note": "[Example 268, 6-[2-(benzyloxy)ethyl]-2-(4-cyclopropyl-2,6-dimethylphenyl)-2,5-dihydro-4H-pyrazolo[3,4-d]pyrimidin-4-one]", "inhibition at 6 µM": 98}, {"smiles": "Cc1cc(C2CC2)cc(C)c1-n1cc2c(=O)[nH]c(CN3CCCO3)nc2n1", "note": "[Example 237, 2-(4-cyclopropyl-2,6-dimethylphenyl)-6-[(1,2-oxazolidin-2-yl)methyl]-2,5-dihydro-4H-pyrazolo[3,4-d]pyrimidin-4-one]", "inhibition at 6 µM": 98}, {"smiles": "Cc1cc(C2CC2)cc(C)c1-n1cc2c(=O)[nH]c([C@H]3C[C@H](F)C3)nc2n1", "note": "[Example 255, 2-(4-cyclopropyl-2,6-dimethylphenyl)-6-[(1r,3r)-3-fluorocyclobutyl]-2,5-dihydro-4H-pyrazolo [3,4-d]pyrimidin-4-one]", "inhibition at 6 µM": 98}, {"smiles": "Cc1cc(C2CC2)cc(C)c1-n1cc2c(=O)[nH]c(C(C)(F)F)nc2n1", "note": "[Example 259, 2-(4-cyclopropyl-2,6-dimethylphenyl)-6-(1,1-difluoroethyl)-2,5-dihydro-4H-pyrazolo[3,4-d]pyrimidin-4-one]", "inhibition at 6 µM": 104}, {"smiles": "Cc1cc(Br)cc(C(F)F)c1-n1cc2c(=O)[nH]c(COC(F)F)nc2n1", "note": "[Example 279, 2-[4-bromo-2-(difluoromethyl)-6-methylphenyl]-6-[(difluoromethoxy)methyl]-2,5-dihydro-4H-pyrazolo[3,4-d]pyrimidin-4-one]", "inhibition at 6 µM": 100}, {"smiles": "Cc1cc(C2(F)CC2)cc(C)c1-n1cc2c(=O)[nH]c(-c3ccn(C)n3)nc2n1", "note": "[Example 292, 2-[4-(1-fluorocyclopropyl)-2,6-dimethylphenyl]-6-(1-methyl-1H-pyrazol-3-yl)-2,5-dihydro-4H-pyrazolo[3,4-d]pyrimidin-4-one]", "inhibition at 6 µM": 101}, {"smiles": "CCOc1nc2nn(-c3c(C#N)cc(C4CC4)cc3C(F)F)cc2c(=O)[nH]1", "note": "[Example 254, 5-cyclopropyl-3-(difluoromethyl)-2-(6-ethoxy-4-oxo-4,5-dihydro-2H-pyrazolo[3,4-d]pyrimidin-2-yl)benzonitrile]", "inhibition at 6 µM": 100}, {"smiles": "CCc1nc2nn(-c3ccc(C4CC4)c(C(F)F)c3F)cc2c(=O)[nH]1", "note": "[Example 281, 2-[4-cyclopropyl-3-(difluoromethyl)-2-fluorophenyl]-6-ethyl-2,5-dihydro-4H-pyrazolo[3,4-d]pyrimidin-4-one]", "inhibition at 6 µM": 98}, {"smiles": "Cc1cc(C2CC2)cc(C)c1-n1cc2c(=O)[nH]c(C3C=COCC3)nc2n1", "note": "(stereo not drawn) [Example 306, 2-(4-cyclopropyl-2,6-dimethylphenyl)-6-(3,4-dihydro-2H-pyran-4-yl)-2,5-dihydro-4H-pyrazolo[3,4-d]pyrimidin-4-one]", "inhibition at 6 µM": 98}, {"smiles": "Cc1cc(C2CC2)cc(C)c1-n1cc2c(=O)[nH]c([C@]3(F)CCOC3)nc2n1", "note": "[Example 290, 2-(4-cyclopropyl-2,6-dimethylphenyl)-6-[(3S)-3-fluorooxolan-3-yl]-2,5-dihydro-4H-pyrazolo[3,4-d]pyrimidin-4-one or 2-(4-cyclopropyl-2,6-dimethylphenyl)-6-[(3R)-3-fluorooxolan-3-yl]-2,5-dihydro-4H-pyrazolo[3,4-d]pyrimidin-4-one]", "inhibition at 6 µM": 99}]}, {"system": "NLRP3 inflammasome (IL-1β production in THP-1 cells)", "assay": "IL-1β TR-FRET Assay (percentage of inhibition at 300 nM, 6 μM or 10 μM)", "type": "cell-based, human", "settings": "Homo sapiens, THP-1, 10 μM, LPS priming, ATP activation, read-out: IL-1β inhibitory rate at 10 μM (%)", "experimental": "as §1, §2, §3, §4", "units": {"inhibition at 10 µM": "%"}, "values": [{"smiles": "Cc1cc(Br)cc(C)c1-n1cc2c(=O)[nH]c([C@@H](C)C(=O)O)nc2n1", "note": "[Example 170, 2-[2-(4-bromo-2,6-dimethylphenyl)-4-oxo-4,5-dihydro-2H-pyrazolo [3,4-d]pyrimidin-6-yl]propanoic acid]", "inhibition at 10 µM": 136}]}]}
